In ChEMBL document CHEMBL1146771, “Identification of purine inhibitors of phosphodiesterase 7 (PDE7)” (Bioorg Med Chem Lett, 2004):

Key:
[1] = Inhibition of Phosphodiesterase 7
[2] = biological target: Phosphodiesterase 1 (Bos taurus, UniProt Q01061+P14100); assay: Inhibitory concentration against phosphodiesterase 1 from bovine, calmodulin; format: protein assay
[3] = biological target: cGMP-specific 3',5'-cyclic phosphodiesterase (Homo sapiens, UniProt O76074); assay: Inhibitory concentration against phosphodiesterase 5 (PDE5) from human platelet
[4] = biological target: Phosphodiesterase 3 (Homo sapiens, UniProt Q14432+Q13370); assay: Inhibitory concentration against phosphodiesterase 3 from human platelet
[5] = biological target: T1, cGMP-dependent 3',5'-cyclic phosphodiesterase (Rattus norvegicus, UniProt Q01062); assay: Inhibitory concentration against phosphodiesterase 2 from rat kidney
T1 sequence (Q01062 whole entry): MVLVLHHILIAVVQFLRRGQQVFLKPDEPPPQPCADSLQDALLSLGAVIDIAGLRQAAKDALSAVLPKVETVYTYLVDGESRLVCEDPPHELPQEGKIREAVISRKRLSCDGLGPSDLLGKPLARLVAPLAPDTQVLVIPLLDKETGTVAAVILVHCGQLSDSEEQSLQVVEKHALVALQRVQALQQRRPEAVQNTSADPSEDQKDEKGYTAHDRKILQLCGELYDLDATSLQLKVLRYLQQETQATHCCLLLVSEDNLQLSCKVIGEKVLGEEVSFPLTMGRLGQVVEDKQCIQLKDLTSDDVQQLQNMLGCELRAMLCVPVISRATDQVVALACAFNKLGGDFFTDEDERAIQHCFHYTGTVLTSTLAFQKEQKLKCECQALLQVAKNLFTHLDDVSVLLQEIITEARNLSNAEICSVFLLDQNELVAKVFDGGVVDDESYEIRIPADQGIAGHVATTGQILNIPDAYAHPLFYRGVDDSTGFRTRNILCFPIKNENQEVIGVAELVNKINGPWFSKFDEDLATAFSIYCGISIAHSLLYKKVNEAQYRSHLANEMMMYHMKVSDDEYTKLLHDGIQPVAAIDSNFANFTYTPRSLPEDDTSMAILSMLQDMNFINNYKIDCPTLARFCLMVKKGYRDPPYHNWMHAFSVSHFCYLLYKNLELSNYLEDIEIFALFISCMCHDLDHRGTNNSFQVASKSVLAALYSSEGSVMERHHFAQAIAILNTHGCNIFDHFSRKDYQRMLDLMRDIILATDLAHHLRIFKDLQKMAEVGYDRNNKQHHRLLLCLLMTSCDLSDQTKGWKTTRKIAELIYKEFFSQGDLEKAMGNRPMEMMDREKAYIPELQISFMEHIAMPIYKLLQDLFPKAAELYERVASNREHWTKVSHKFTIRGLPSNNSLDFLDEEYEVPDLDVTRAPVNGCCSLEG

[6] = Inhibitory concentration ratio of PDE3 to that of PDE7
[7] = Inhibitory concentration ratio of PDE5 to that of PDE7
[8] = Inhibitory concentration ratio of PDE4 to that of PDE7
[9] = Inhibitory concentration ratio of PDE1 to that of PDE7
[10] = Inhibitory concentration ratio of PDE2 to that of PDE7
[11] = organism: Rattus norvegicus
[12] = organism: Rattus norvegicus; assay: Inhibition of Phosphodiesterase 7 at 1 uM

SMILES | IC50 [1] [µM] | IC50 [5] [µM] | Ratio [6] | Ratio [7] | Ratio [8] | Ratio [9] | Ratio [10] | other results
COc1nc2c([nH]1)c(=O)n(C)c(=O)n2CC(C)C | > 10 | > 10 |  |  |  |  |  | IC50 [2]: 1.8 µM; IC50 [3]: 3.02 µM; IC50 [4]: > 10 µM
Nc1ncnc2c1ncn2[C@@H]1O[C@@H]2COP(=O)(O)O[C@H]2[C@H]1O |  |  |  |  |  |  |  | Km [11]: 0.2 µM
COc1ccc(C2CNC(=O)C2)cc1OC1CCCC1 (stereo not given) [ROLIPRAM] | > 10 | > 10 |  |  |  |  |  | IC50 [2]: > 10 µM; IC50 [4]: > 10 µM
COc1cc(-c2ccc(=O)[nH]n2)ccc1OC(F)F [ZARDAVERINE] | > 10 | > 10 |  |  |  |  |  | IC50 [2]: > 10 µM; IC50 [3]: > 10 µM; IC50 [4]: 0.11 µM
CCOC(=O)c1sc(Nc2nc(N3CCc4cc(OC)c(OC)cc4C3)c3c(ncn3CC)n2)nc1C | 0.15 |  | 17 | 4.6 | 1.3 | 2.8 | 3.6 | 
CN(C(=O)CCCOc1ccc2[nH]c(=O)ccc2c1)C1CCCCC1 [CILOSTAMIDE] | > 10 | > 10 |  |  |  |  |  | IC50 [2]: > 10 µM; IC50 [3]: 7.15 µM
CCCc1nn(C)c2c(=O)[nH]c(-c3cc(S(=O)(=O)N4CCN(C)CC4)ccc3OCC)nc12 | > 10 | > 10 |  |  |  |  |  | 
CCn1cnc2nc(Nc3nc(C)cs3)nc(NCc3ccc(OC)c(OC)c3)c21 |  |  |  |  |  |  |  | inhibition [12]: 15%

More lines, main results first:

IC50 [1] [µM] | IC50 [5] [µM] | Ratio [6] | Ratio [7] | Ratio [8] | Ratio [9] | Ratio [10] | SMILES | other results
0.011 |  |  |  |  |  |  | CCOC(=O)c1sc(Nc2nc(NCc3ccc(S(N)(=O)=O)cc3)c3c(ncn3CC)n2)nc1C | 
0.15 | 1.7 |  |  |  |  |  | CCOC(=O)c1sc(Nc2nc(NCc3ccc(OC)c(OC)c3)c3c(ncn3CC)n2)nc1C | IC50 [2]: 0.22 µM; IC50 [3]: 0.27 µM; IC50 [4]: 0.58 µM
0.055 |  | 130 | 0.9 | 22 | 18 | 25 | CCOC(=O)c1sc(Nc2nc(NCc3ccc(S(C)(=O)=O)cc3)c3c(ncn3CC)n2)nc1C | 
1.6 |  | 0.11 | 0.55 | 0.046 |  |  | CCOC(=O)c1sc(Nc2nc(NS(=O)(=O)c3ccc(S(C)(=O)=O)cc3)c3ncn(CC)c3n2)nc1C | 
0.94 |  | 2.5 | 2.9 | 3.8 | 1.3 | 2.3 | CCOC(=O)c1sc(Nc2nc(NCc3ccc(OCc4ccccc4)c(OC)c3)c3c(ncn3CC)n2)nc1C | 
0.1 |  | 33 | 15 | 24 | 1.7 | 14 | CCOC(=O)c1sc(Nc2nc(NCc3cc(OC)c(OC)c(OC)c3)c3c(ncn3CC)n2)nc1C | 
0.82 |  | 12 | 1.1 | 7 | 12 | 11 | CCn1cnc2nc(Nc3nc(C)c(C(=O)Nc4ccccc4)s3)nc(NCc3ccc(OC)c(OC)c3)c21 | 
0.11 |  | 11 | 0.38 |  | 19 |  | CCOC(=O)c1sc(Nc2nc(NCc3ccc4c(c3)OCO4)c3c(ncn3CC)n2)nc1C | 
0.01 |  | > 5000 | 13 | 16 | 200 | 45 | CCOC(=O)c1sc(Nc2nc(NCc3ccc(S(N)(=O)=O)cc3)c3ncn(CC)c3n2)nc1C | 
0.37 |  | 21 | 4.1 |  |  |  | CCOC(=O)c1sc(Nc2nc(OCc3ccc(S(C)(=O)=O)cc3)c3ncn(CC)c3n2)nc1C | 
